Conditions: Liquid, Vibrating tube method

CCCCCCCCCC [decane]
Conditions	mass density [kg/m3]
333.14 K, 31467 kPa	725.7
333.14 K, 31504 kPa	725.7
333.14 K, 31531 kPa	725.6
333.14 K, 31564 kPa	725.8
333.14 K, 31694 kPa	725.9
333.14 K, 31764 kPa	725.9
333.14 K, 32193 kPa	726
333.14 K, 32227 kPa	726.1
333.14 K, 32261 kPa	726.2
333.14 K, 32305 kPa	726.2
333.14 K, 32335 kPa	726.3
333.14 K, 32366 kPa	726.3
333.14 K, 32401 kPa	726.4
333.14 K, 32435 kPa	726.3
333.15 K, 358 kPa	699.5
333.15 K, 377 kPa	699.6
333.15 K, 404 kPa	699.5
333.15 K, 423 kPa	699.6
333.15 K, 440 kPa	699.5
333.15 K, 465 kPa	699.6
333.15 K, 501 kPa	699.6
333.15 K, 536 kPa	699.7
333.15 K, 563 kPa	699.6
333.15 K, 600 kPa	699.7
333.15 K, 627 kPa	699.8
333.15 K, 645 kPa	699.8
333.15 K, 672 kPa	699.8
333.15 K, 696 kPa	699.8
333.15 K, 727 kPa	699.7
333.15 K, 765 kPa	699.9
333.15 K, 1005 kPa	700.1
333.15 K, 1052 kPa	700.2
333.15 K, 1108 kPa	700.3
333.15 K, 1167 kPa	700.2
333.15 K, 1210 kPa	700.4
333.15 K, 1236 kPa	700.4
333.15 K, 1263 kPa	700.3
333.15 K, 1284 kPa	700.3
333.15 K, 1315 kPa	700.4
333.15 K, 1341 kPa	700.4
333.15 K, 1363 kPa	700.5
333.15 K, 1393 kPa	700.4
333.15 K, 1421 kPa	700.6
333.15 K, 1449 kPa	700.6
333.15 K, 1481 kPa	700.6
333.15 K, 1519 kPa	700.7
333.15 K, 1544 kPa	700.7
333.15 K, 1588 kPa	700.7
333.15 K, 1620 kPa	700.7
333.15 K, 1662 kPa	700.7
333.15 K, 1706 kPa	700.8
333.15 K, 1751 kPa	701
333.15 K, 1782 kPa	700.9
333.15 K, 1825 kPa	700.9
333.15 K, 1879 kPa	701
333.15 K, 1924 kPa	701
333.15 K, 1954 kPa	701
333.15 K, 2001 kPa	701.1
333.15 K, 2049 kPa	701.1
333.15 K, 2081 kPa	701.2
333.15 K, 2130 kPa	701.3
333.15 K, 2176 kPa	701.4
333.15 K, 2223 kPa	701.4
333.15 K, 2280 kPa	701.4
333.15 K, 2332 kPa	701.3
333.15 K, 2406 kPa	701.5
333.15 K, 2460 kPa	701.6
333.15 K, 2497 kPa	701.6

Source: the NIST ThermoML archive (doi:10.1021/je800110r)
